Experimental data as given in article PMC7699649 (Communications Biology, 2020).
Several values for one entry are separate records, joined by “and”; a condition that tells them apart may be missing. Identical values can stand only once. Non-standard residues stand in square brackets, D forms with d. Residues, ends and D or L forms follow the SMILES beside them.

What was measured:
[1] = Murine EMRSA-15 lung infection model: body weight; assay type: in vivo, C57Bl6J mice
[2] = in words
[3] = system: EMRSA-15; assay: 1H HR-MAS NMR metabolomics of bacterial pellets; assay type: cell-based, Staphylococcus aureus; details: EMRSA-15 in MHB, sub-inhibitory challenge v unchallenged; fold change, 1H HR-MAS NMR of pellets
Method: S. aureus EMRSA-15 and P. aeruginosa RP73 were streaked on Mueller Hinton agar plates and RPMI (supplemented with 5% FBS) agar plates and incubated at 37 °C overnight or until single colonies formed. […] Cultures were incubated overnight at 37 °C without shaking and pelleted by centrifugation at 4 °C. The supernatant was removed and filtered separately for spent media analysis, the pellet was briefly washed three times with phosphate buffered saline (PBS). The pellets were frozen in liquid nitrogen and lyophilised overnight in an Alpha 1–2 LD plus freeze dryer (Martin Christ, Germany) and stored at −20 °C until required. Samples were transferred into HR-MAS inserts for use in 4 mm Bruker MAS rotor and resuspended in 30 μl of D2O containing 3-(Trimethylsilyl)propionic-2,2,3,3-D4 acid sodium salt (TMSP-2,2,3,3-D4). The removed supernatant was filtered through 0.2 μm filters and pH adjusted to within 0.3 pH units within the same sample set. The samples were supplemented with 10% D2O containing TMSP-2,2,3,3-D4 and loaded into 5.0 mm NMR tubes.
NMR spectra were collected at 600 MHz for ^1H on a Bruker Avance II spectrometer (Bruker Biospin, Coventry, UK) with a 4 mm HR-MAS probe at 310 K while spinning at 5 kHz. ^1H NMR spectra were acquired using a Carr-Purcell Meiboom-Gill pre-saturation (cpmgpr1d) pulse sequence with a spectrum width of 16.0 ppm and 9615 data points using 64 transients. Free induction decay was multiplied by an exponential function with 0.293 Hz line broadening. 2D ^1H–^1H correlation spectroscopy (COSY) and ^1H–^13C Heteronuclear Single Quantum Correlation (HSQC) experiments were performed on representative datasets using standard Bruker settings.
The spectra were Fourier transformed automatically using standard Bruker commands and manually phased and baseline corrected in Bruker TopSpin 4.0 (Bruker Biospin, Coventry, UK). Spectral pre-processing, cross-validation and multivariate analysis were carried out using the in-house programme developed by Dr Louic Vermeer and MVAPACK, an opensource Octave library for NMR metabolomic data processing and analysis. Pre-processing modifies NMR spectra and reduces the variances and influences which are not of interest and may interfere with data analysis, for example, residual water peak or noise and the TSP reference peak. Initially a principle component analysis was carried out to identify clustering spectra and potential outliers in the data, due to e.g. poor baseline. Data were then subject to probabilistic quotient normalisation before binning and alignment. Orthogonal Projections to Latent Structures Discriminant Analysis analyses were conducted to establish the quality of binary comparisons of the metabolomic data (Supplementary Table 4). […] The Mann–Whitney U test was used to compare means and associated p values were false discovery rate adjusted using the Benjamini-Hochberg method (α = 0.05). Box plots were generated using changes in normalised intensity for each metabolite and significant differences between challenges and controls were determined using a one-way ANOVA. Volcano plots and box plots were generated using in-house software developed for Jupyter Notepad using Python 3.7.0. Metabolites were assigned using the databanks: Chenomx NMR suite software (Chenomx Inc., Canada), Human Metabolome Database, BMRB, E. coli Metabolome Database and AOCS lipid library; and a comparison of chemical shifts to the literature, which was confirmed using 2D NMR spectra. Annotated spectra can be found in the supplementary materials (Supplementary Fig. 15). Metaboanalyst and KEGG were later used to identify key pathways that may be affected by these metabolites.

[4] = system: MCP-1; assay: Murine EMRSA-15 lung infection model: BAL cytokine ELISA; assay type: in vivo, C57Bl6J mice; details: vancomycin or D-pleurocidin-KR i.v., 48 h
[5] = system: human red blood cells; assay: Haemolysis assay; assay type: cell-based; details: human red blood cells in PBS, 1 h 37 °C, OD550, relative to 0.1% Triton-X-100
Method: Haemolysis was tested by incubating titrations of AMPs in PBS with freshly collected human red blood cells for 1 h at 37 °C. Control wells were treated with 0.1% Triton-X-100 to ensure complete lysis, or PBS-only to represent no lysis. Samples were spun down to remove non-lysed cells and the OD550 of the supernatant was measured using a Clariostar plate reader. The percentage of haemolysis was calculated as % haemolysis = (AP − AB)/(AC − AB) × 100, where AP is the absorbance value for a known peptide concentration, AC is the absorbance of the 0.1% Triton-X-100 control, AB is the absorbance of the PBS control. Data presented are averages and standard error from three biological replicate experiments.

[6] = system: Calu-3; assay type: cell-based; details: XTT, 24 h with peptide, OD475; DMEM/F-12, 10% FBS; average and standard error of three biological replicates
Method: (§1) HeLa and HEK293 cell lines were purchased from ECACC and cultured in Eagle’s Minimum Essential Media containing glutamine, supplemented with 10% FBS and 1X non-essential amino acids. A549 and Calu-3 cell lines were purchased from ATCC. […] Cytotoxicity was measured by incubating starter cultures of cells for 24 h in a 96 well plate, gently removing the supernatant and replacing it with dilutions of peptides and controls, incubating for a further 24 h and then staining of the cells with the second-generation tetrazolium dye, XTT.

[7] = system: HeLa; assay type: cell-based; details: XTT, 24 h with peptide, OD475; Eagle's Minimum Essential Media, 10% FBS; average and standard error of three biological replicates
Method: as §1

[8] = system: A549; assay type: cell-based; details: XTT, 24 h with peptide, OD475; DMEM, 10% FBS; average and standard error of three biological replicates
Method: as §1

SMILES: CC(C)C[C@@H](NC(=O)[C@@H](Cc1ccc(O)cc1)NC(=O)[C@@H](Cc1c[nH]cn1)NC(=O)[C@H](NC(=O)[C@@H](CC(C)C)NC(=O)[C@@H](C)NC(=O)[C@@H](C)NC(=O)[C@@H](CCCNC(=N)N)NC(=O)CNC(=O)[C@H](NC(=O)[C@@H](Cc1c[nH]cn1)NC(=O)[C@@H](CCCNC(=N)N)NC(=O)CNC(=O)[C@H](NC(=O)[C@@H](Cc1c[nH]cn1)NC(=O)[C@@H](C)NC(=O)[C@@H](C)NC(=O)[C@@H](CCCNC(=N)N)NC(=O)[C@@H](CCCNC(=N)N)NC(=O)[C@@H](Cc1ccccc1)NC(=O)[C@@H](Cc1ccccc1)NC(=O)[C@@H](CO)NC(=O)CNC(=O)[C@@H](Cc1c[nH]c2ccccc12)NC(=O)CN)C(C)C)C(C)C)[C@H](C)O)C(N)=O [D-pleurocidin-KR] (H-G[dW]G[dS][dF][dF][dR][dR][dA][dA][dH][dV]G[dR][dH][dV]G[dR][dA][dA][dL][dT][dH][dY][dL]-NH2; N-terminus assumed)
- weight loss over the 48-h infection period ([1]; cumulative 15 or 1.5 mg/kg/48 h D-pleurocidin-KR, 600 mg/kg vancomycin, i.v.): mitigates this weight loss
- weight loss over the 48-h infection period ([1]; lowest dose of 0.15 mg/kg D-pleurocidin-KR i.v.): no observable effect
- solubility in aqueous media [2]: readily soluble
- fc 2-aminobutyrate [3]: 0.991
- fc Acetate [3]: 1.149
- fc Acetyl-Phosphocholine (1) [3]: 0.9923
- fc Acetyl-Phosphocholine (2) [3]: 1.003
- fc Adenosine [3]: 1.125
- fc Alanine [3]: 0.9478
- fc Aspartate [3]: 0.8483
- fc Betaine [3]: 0.9779
- fc Choline [3]: 1.051
- fc Citrulline [3]: 0.9363
- fc Glutamate [3]: 0.896
- fc Glycerol (lipid headgroup) (1) [3]: 0.9028
- fc Glycerol (lipid headgroup) (2) [3]: 1.031
- fc Glycerol (lipid headgroup) (3) [3]: 0.9777
- fc Isoleucine [3]: 1.148
- fc Lactate [3]: 1.293
- fc Leucine [3]: 1.172
- fc Lipid -CH=CH- [3]: 1.134
- fc Lipid-CH₃ [3]: 1.116
- fc Lysine [3]: 1.027
- fc N-acetyl-x (1) [3]: 0.8941
- fc N-acetyl-x (2) [3]: 1.036
- fc N-acetyl-x (3) [3]: 0.9489
- fc Proline [3]: 1.056
- fc Succinate [3]: 0.8785
- fc Unassigned 1.47ppm [3]: 0.8868
- fc Unassigned 3.4802ppm [3]: 0.9293
- fc Unassigned 8.55ppm [3]: 0.9285
- fc Uracil [3]: 1.738
- fc Valine [3]: 1.029
- fc ᴅ-alanine (LTA) [3]: 1.157
- levels of MCP-1 in BAL [4]: No effects
- haemolysis at the highest concentration tested 400 µg/ml [5]: 50%
- concentration at which 10% haemolysis is achieved ([5]; three biological replicates): above 64 µg/ml and ~ 75 µg/ml
- Toxicity Calu-3 (EC50 / IC50) [6]: (39.1 ± 1.8) µg/ml
- Toxicity HeLa (EC50 / IC50) [7]: (25.3 ± 2.2) µg/ml
- Toxicity A549 (EC50 / IC50) [8]: (56.5 ± 4.5) µg/ml
